Experimental data as given in patent publication EP4104902B1, “COMPOUNDS AND M[…] SAME” (priority 2020, dated 2021).
Read-outs that look alike come from different tables or passages of the source.

Tested on: recombinant rabies virus 1088 strain expressing Gaussia Luciferase (GLuc) (1088/GLuc)
Assay type: cell-based

Row | SMILES | IC50 (read-out: Anti-rabies activity) | IC50 (read-out: IC50)
1 | CC(C)CC[C@@H]1[C@@H]2CN[C@@]3(C(=O)NCCCNC(=N)N)[C@@H](C2)CN(Cc2ccc(F)cc2)[C@@H]13 (relative stereo) [IB-369] | 10 to 30 µM | –
2 | CC(C)CCNC(=O)[C@@]12C[C@@H]3CN(CCc4ccccc4)[C@@H]([C@@H]3CN1)[C@H]2Cc1ccc(O)cc1 (relative stereo) [IF-707] | < 5 µM | –
3 | O=C(NCc1ccc(F)cc1)[C@]12NC[C@@H]3C[C@H]1CN(CCc1ccccc1)[C@H]2[C@@H]3Cc1ccc(O)cc1 (relative stereo) [IB-642] | < 5 µM | –
4 | CC(C)CN1C[C@H]2C[C@]3(C(=O)NCc4ccccc4)NC[C@H]2[C@H]1[C@H]3CC1CCCCC1 (relative stereo) [IF-38] | 10 to 30 µM | –
5 | Cc1ccc(CN2CC3CC4CN(C(=O)OCc5ccccc5)C3(C(=O)NCc3ccccc3)C2C4CC(C)C)cc1 (stereo not drawn) [IB-887] | 5 to 10 µM | –
6 | CC(C)CN1C[C@@H]2C[C@H]3CN[C@]2(C(=O)NCCO)[C@@H]1[C@@H]3Cc1cccc2ccccc12 (relative stereo) [IB-687] | 10 to 30 µM | –
7 | O=C(O)CCC1C2CNC3(C(=O)NCc4cccc5ccccc45)C(C2)CN(Cc2ccc(F)cc2)C13 (stereo not drawn) [IB-390] | 10 to 30 µM | –
8 | CC(C)CCNC(=O)C12NCC3CC1CN(CCO)C2C3Cc1cccc2ccccc12 (stereo not drawn) [IB-727] | < 5 µM | –
9 | CC(C)NC(=O)C12NCC3CC1CN(Cc1ccc(O)cc1)C2C3Cc1cccc2ccccc12 (stereo not drawn) [IB-502] | < 5 µM | –
10 | O=C(NCc1ccccc1)[C@]12NC[C@@H]3C[C@H]1CN(Cc1ccc(F)cc1)[C@H]2[C@@H]3Cc1ccccc1 (relative stereo) [IB-772] | < 5 µM | –
11 | O=C(NCc1ccc(O)cc1)[C@]12NC[C@@H]3C[C@H]1CN(CCO)[C@H]2[C@@H]3Cc1cccc2ccccc12 (relative stereo) [IB-470] | 10 to 30 µM | –
12 | CC(C)C[C@@H]1[C@@H]2[C@@H]3CN[C@@]1(C(=O)NCc1ccc(Cl)c(Cl)c1)C[C@@H]3CN2Cc1ccccc1 (relative stereo) [IF-20] | 10 to 30 µM | 11.6 µM
13 | Cc1ccc(CN2CC3CC4C=NC3(C(=O)NCc3ccccc3)C2C4CC(C)C)cc1 (stereo not drawn) [IIB-86] | 5 to 10 µM | –
14 | CC(C)CC[C@@H]1[C@@H]2CN[C@@]3(C(=O)NCc4ccc(F)cc4)[C@@H](C2)CN(CCO)[C@@H]13 (relative stereo) [IB-657] | 10 to 30 µM | –
15 | N=C(N)NCCCNC(=O)[C@]12NC[C@@H]3C[C@H]1CN(Cc1ccccc1)[C@H]2[C@@H]3CCc1ccccc1 (relative stereo) [IB-279] | 10 to 30 µM | –
16 | CC(C)NC(=O)[C@@]12C[C@@H]3CN(Cc4cccc5ccccc45)[C@@H]([C@@H]3CN1)[C@H]2CCc1ccccc1 (relative stereo) [IF-789] | 10 to 30 µM | –
17 | CC(C)C[C@@H]1[C@@H]2CN[C@@]3(C(=O)NCc4ccccc4)[C@@H](C2)CN(CC(C)C)[C@@H]13 (relative stereo) [IB-5] | 10 to 30 µM | 18.2 µM
18 | NC(=O)CN1C[C@@H]2C[C@H]3CN[C@]2(C(=O)NCc2ccc(F)cc2)[C@@H]1[C@@H]3Cc1ccccc1 (relative stereo) [IB-92] | 10 to 30 µM | –
19 | CC(C)CC[C@@H]1[C@@H]2[C@@H]3CN[C@@]1(C(=O)NCCC(N)=O)C[C@@H]3CN2CC(C)C (relative stereo) [IF-300] | 10 to 30 µM | –
20 | O=C(O)CCNC(=O)C12NCC3CC1CN(Cc1ccc(O)cc1)C2C3Cc1cccc2ccccc12 (stereo not drawn) [IB-410] | 10 to 30 µM | –
21 | NC(=O)CN1CC2CC3CNC2(C(=O)NCc2ccccc2)C1C3CCc1ccccc1 (stereo not drawn) [IB-130] | 10 to 30 µM | –
22 | CC(C)C[C@@H]1[C@@H]2CN[C@@]3(C(=O)NCc4ccccc4)[C@@H](C2)CN(CCc2ccccc2)[C@@H]13 (relative stereo) [IB-757] | < 5 µM | –
23 | CC(C)CNC(=O)[C@]12NC[C@@H]3C[C@H]1CN(CCc1ccccc1)[C@H]2[C@@H]3Cc1ccc(O)cc1 (relative stereo) [IB-625] | 10 to 30 µM | –
24 | CC(C)CCN1CC2CC3CNC2(C(=O)NCc2ccc(F)cc2)C1C3Cc1ccc(O)cc1 (stereo not drawn) [IB-481] | < 5 µM | –
25 | O=C(NCCc1ccccc1)[C@@]12C[C@@H]3CN(CC4CCCCC4)[C@@H]([C@@H]3CN1)[C@H]2Cc1ccccc1 (relative stereo) [IF-710] | < 5 µM | –
